In patent US20250177448A1, “NEW USE OF PEG-PHOSPHOLIPID MOLECULES” (ICOAT MEDICAL AB, priority 2022, published 2025):
“Also recorded” adds a separate entry of the source.

Assays:
CD4 = assay: Antibody binding to surface antigen on PEG-phospholipid coated CCRF-CEM, flow cytometry; assay type: cell-based, human; details: 2 mg/ml in PBS, 30 minutes room temperature; antigen 15 nm
Procedure: (§1) CCRF-CEM were collected from cell culture medium (1×10^6 cells) and washed with PBS by centrifugation (250×g, 3 min, RT). A cell pellet of CCRF-CEM (1×10^6 cells) was incubated with PEG-phospholipid (50 μl, 2 mg/ml in PBS), 5 kDa unconjugated PEG (50 μl, 2 mg/ml in PBS) or PBS (50 μl, as control) for 30 min at RT with gentle mixing. After washing with PBS by centrifugation (200×g, 4° C., 3 min) twice, FITC-labeled three antibodies, FITC-anti-human CD52 from BioLegend (400 μg/ml, 40 μl), FITC-anti-human CD4 from BioLegend (200 μg/ml, 40 μl), or Alexa488-labelled anti-human CD8 from GeneTex (200 μg/ml, 40 μl, Alexa488 was labelled by the labelling kit) or PBS (40 μl) was mixed with the treated CCRF-CEM for 15 min at RT. As a control, CCRF-CEM was treated with 2 mg/ml PEG (5 kDa, in PBS) solution and additionally incubated with FITC- or Alexa488-labeled antibodies. After washing with PBS by centrifugation (200×g, 4° C., 3 min), CCRF-CEM were re-suspended with PBS (1 ml) for flow cytometry measurements. Samples were analyzed on a flow cytometer (BD LSR II, BD Biosciences). Post analysis processing was carried out in FlowJo (BD).
(§2) CCRF-CEM cells were incubated with PEG-phospholipid (2 mg/ml in PBS), free PEG (5 kDa, equivalent molecular weight used in the synthesis of PEG-phospholipid) or PBS (vehicle control) for 30 minutes at room temperature. After removing excess PEG-phospholipid, FITC-labelled antibodies directed towards surface antigens of different sizes, CD52, CD4, and CD8, were added. Samples were analyzed on a flow cytometer. […] The size of CD8 is estimated to be around 5-10 nm based on the crystal structure of the non-membranous part. Lastly, CD4-antibodies were not blocked by PEG-phospholipid, as expected, given that the size of the antigen (15 nm) is larger than the size of PEG-phospholipid (estimated to be around 6 nm) (FIG. 3A).

CD52 = assay: as above; assay type: cell-based, human; details: 2 mg/ml in PBS, 30 minutes room temperature; antigen around 1 nm
Procedure: as §1, §2

CD8 = assay: as above; assay type: cell-based, human; details: 2 mg/ml in PBS, 30 minutes room temperature; antigen around 5-10 nm
Procedure: as §1, §2

RBCs = assay: Complement mediated lysis of RBCs coated with PEG-phospholipid; assay type: cell-based, human; details: ABO missmatched donors, vs non-treated controls, 37° C. 20 min
Procedure: In order to investigate if the PEG-phospholipid was able to protect against complement mediated lysis, RBCs were used from 13 different donors who were typed for Rh complex and ABO antigens. RBCs were isolated and preincubated with PEG-phospholipid at varying concentrations, free PEG or PBS as described above. Cells were then washed (and the supernatant stored for analysis) with PBS (800 g×5 min, RT) and incubated with human serum (where the complement system is active) for 20 minutes at 37° C. They were then spun down again (800 g×5 min) and the supernatant was collected for analysis of hemolysis. The RBCs were analyzed for complement fixation (cells were incubated for 10 min with a
FITC-labelled anti-C3c antibody). RBCs were resuspended with PBS (1 mL) for flow cytometry measurements. […] Post analysis processing was carried out in FlowJo (BD). The supernatant was analyzed on a variable wavelength detection plate reader, Synergy HTX, for the absorbance at 540 nm. RBCs, which were lysed via osmotic stress, were run in parallel as positive controls. The background absorbance at 540 nm from PBS containing no cells was subtracted and the difference in absorbance between cells coated with PEG-phospholipid or PBS was then calculated.

[1] = test system: porcine kidney transplant, ischemia reperfusion injury
Procedure: TAT was measured in both human and porcine plasma using an anti-human thrombin monoclonal antibody was used for capturing and an HRP-coupled anti-human antithrombin (AT) antibody was used for detection (Enzyme Research Laboratories, South Bend, IN, USA).
In addition, TNF, IL-1b, IL-6 and tissue factor (TF) were quantified in plasma by immunoassays using a GyroLab workstation (Gyros, Uppsala, Sweden), and the presence of these compounds, as well as IFNγ in biopsies (below) were verified by PCR.
Paraffin sections of porcine kidney tissue were cut (3-5 μm), deparaffinized in xylene and rehydrated with a graded series of ethanol and distilled water. For IHC staining a heat-induced antigen retrieval was performed by boiling the sections in sodium citric buffer (pH 6), the sections were blocked with 10% normal goat serum (Jackson Immunoresearch) before primary antibody incubation: anti-MAC (abcam ab66768); anti-C3b alpha chain (Bioss bs-4873R); anti-C4d (abcam ab64157), anti-C5aR (Acris AP06509PU-N), anti-HO1 (abcam ab52947), anti-CSE (abnova H00001491-M01), anti-Nitrotyrosine (Merck Millipore AB5411), anti-NOS2 (Santa Cruz sc-651), detection was performed by DAKO Real
Detection System alkaline phosphatase red (Dako). The sections were counterstained with Mayer's hematoxylin (Sigma #51275). Control staining was done with a nonspecific rabbit IgG (Dako #X0936). The slides were visualized using a Zeiss Axio Imager A1 microscope with a ×10 objective (100-fold magnification). Intensity of staining was quantified on multiple randomly selected 800,000 μm^2 sections using the AxioVision 4.8 software (Zeiss). Data are presented as mean densitometric sum red.

[2] = ANSM biopsies, electron microscopy, vs matched individual controls
[3] = ANSM, 1, 60 and 360 min, treated vs non-treated kidneys
[4] = ANSM, 6 h observation, treated vs untreated kidneys
[5] = ANSM, treated vs untreated kidneys

In the case of “N-(methylpolyoxyethylene oxycarbonyl)-1,2-dipalmitoyl-sn-glycero-3-phosphoethanolamine [PEG-phospholipid]”, the “binding of CD4-antibodies” value (CD4) is reported as “not blocked; also recorded: no significant masking”, the “binding of antibodies directed towards CD52” value (CD52) is reported as “entirely blocked; also recorded: near complete inhibition; also recorded: effective masking” and the “binding capacity of CD8-antibodies” value (CD8) is reported as “reduced but not entirely blocked; also recorded: partial masking”. For the same substance, the “complement-mediated RBC lysis” value (RBCs) was “reduced complement-mediated RBC lysis in a dose dependent manner”, the “glomerular NETosis (renal NET deposition)” value [1, 2] was “marked decrease” and the “tubular NETosis (renal NET deposition)” value [1, 2] was “marked decrease”. The “HO-1 staining in biopsies” value [1, 3] was “No difference was found”, the “INOS staining in biopsies” value [1, 3] was “No difference was found” and the “nitrotyrosine staining in biopsies” value [1, 3] was “No difference was found”. For the same substance, the “C3a in renal vein blood” value [1, 4] was “substantially lower”, the “FXIla-C1INH in renal vein blood” value [1, 4] was “substantially lower” and the “TAT in renal vein blood” value [1, 4] was “substantially lower”. For the same substance, the “sC5b-9 in renal vein blood” value [1, 4] was “substantially lower”, the “IL-1β mRNA expression in kidney biopsies” value ([1]; ANSM, RT-PCR, vs controls) was “lower” and the “IL-6 mRNA expression in kidney biopsies” value ([1]; ANSM, RT-PCR, vs controls) was “lower”. The “TF mRNA expression in kidney biopsies” value ([1]; ANSM, RT-PCR, vs controls) was “lower”, the “TNF mRNA expression in kidney biopsies” value ([1]; ANSM, RT-PCR, vs controls) was “lower” and the “deposition of NETs in all locations (glomerular, tubular, vascular)” value ([1]; ANSM, n=6) was “highly significant reduction”. For the same substance, the “binding of C3b in kidney biopsies” value [1, 5] was “significantly lower binding”, the “binding of C4d in kidney biopsies” value [1, 5] was “tendency of a lower binding” and the “IL-1β plasma concentration in the renal vein” value ([1]; ANSM, vs controls) was “lower”. The “IL-6 plasma concentration in the renal vein” value ([1]; ANSM, vs controls) was “lower”, the “TF plasma concentration in the renal vein” value ([1]; ANSM, vs controls) was “lower” and the “TNF plasma concentration in the renal vein” value ([1]; ANSM, vs controls) was “lower”. For the same substance, the “time within which fluorescence migrated from the glomeruli to the tubular system” value ([1]; pig, in vivo) was at most 6 h.
